# In US9446047B2, “Substituted 2,3-dihydro-1H-inden-1-one retinoic acid-related orphan nuclear receptor antagonists for treating multiple sclerosis” (Arrien Pharmaceuticals LLC, priority 2013, dated 2016):
# pIC50: −log10 of the molar value. Where two headings read alike, the source gives them in different places.
# Assays:
# [1] = system: IL-17 release from CD4+ T cells; test: Cytokine IL-17 estimation by HTRF, IL-17 release from CD4+ T cells; type: cell-based; settings: Homo sapiens, IL-17 release from CD4+ T cells, HTRF, read-out: IL-17 Inhibition
# Excerpt: The assay was designed to assess the potency of test compounds on IL-17 cytokine release from CD4+ T cells. In order to aid in the identification of potent inhibitors, the IC50's determined for the test compounds IL-17 release from CD4+ T cells through the generation of 10 point Dose Response Curves (DRC). Assay methods used to quantify IL-17 secretion is HTRF (Homogenous Time Resolved Fluorescence). IL-17 secreted is detected by anti-IL-17 MAb labeled with XL665, the second MAb labeled with Cryptate, which binds to specific epitopes of human IL-17. Upon close proximity of both acceptor and donor energy transfer (FRET) occurs. This technique has been further enhanced by using long-lived labels combined with the detection on a time-resolved fluorescence basis, allowing […] of prompt fluorescence interferences.
# The assay was performed according to manufacturer's instruction. All the reagents were reconstituted according to instructions provided. The reagents were dispensed into a half area 96-well plate in the following order: […] or sample, IL-17 MAbXL665 and 5 μL IL-17 Cryptate. For the negative control, the standard or sample is replaced by […]. The plate is covered with a plate sealer and incubated at rt for 2 h. Following incubation, the plate sealer is removed and the plate is read using HTRF protocol on Envision Microplate reader. All of the data analysis was carried out using Microsoft Excel (2010) and IC50 was determined using GraphPad Prism 4 software. % Inhibition of the test compounds were determined utilizing the following formula: % Inhibition=100−(100*(Average Test Compound Counts−Average Negative Control Counts)/(Average Positive Control Counts−Average Negative Control Counts)).
# We have established robust in vitro cell-based HTRF assay for the activation and stimulation of CD4+ T lymphocytes to T helper 17 (Th17) cell differentiation and IL-17 production.
# RORγ-LBD (RORγt) = biological target: T1, RORγ-LBD (RORγt) (Homo sapiens, UniProt P51449); test: TR-FRET RORγt Binding Assay; settings: 6-His(GST)RORγ-LBD, SRC1_2 peptide
# T1 construct: the 6-His-(GST) RORγ-LBD was used which expressed and purified from baculovirus infected Sf-21 insect cells; made in house; host or cells: baculovirus-infected Sf-21 insect cells
# T1 sequence (P51449 269-508 limits assumed): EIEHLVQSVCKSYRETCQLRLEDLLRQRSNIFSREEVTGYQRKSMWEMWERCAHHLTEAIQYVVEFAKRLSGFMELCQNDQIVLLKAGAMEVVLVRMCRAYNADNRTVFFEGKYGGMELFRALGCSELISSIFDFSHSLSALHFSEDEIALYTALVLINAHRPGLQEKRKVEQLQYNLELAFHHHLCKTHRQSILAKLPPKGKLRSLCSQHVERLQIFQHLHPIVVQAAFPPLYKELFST
# Experimental: TR-FRET RORγt Binding Assay: RORγ-LBD contains a 6-His and GST tag peptide from SRC1-2 an aminoterminal biotinyl-[…] was employed and the 6-His-(GST) RORγ-LBD was used which expressed and purified from baculovirus infected Sf-21 insect cells from Invitrogen and purified using glutathione sepharose. […] The peptide binding due to dose-curves of compounds was added the 0.1% DMSO. Fluorescence at wavelength 340 nm was read in each well of […] using an Envision fluorescence reader in Time Resolved mode after overnight incubation at 4° C.
# RORγt = biological target: T2, RORγt (Homo sapiens, UniProt P51449); test: RORγt-activated IL-17A Prom/LUCPorter HEK 293 cells luciferase reporter assay; type: cell-based; settings: IL-17A Prom/LUCPorter HEK 293 cells transfected with RORγt, 16 h
# T2 construct: host or cells: IL-17A Prom/LUCPorter HEK 293 cell line (IMGENEX, IML-301)
# T2 sequence (P51449 1-497 isoform P51449-2): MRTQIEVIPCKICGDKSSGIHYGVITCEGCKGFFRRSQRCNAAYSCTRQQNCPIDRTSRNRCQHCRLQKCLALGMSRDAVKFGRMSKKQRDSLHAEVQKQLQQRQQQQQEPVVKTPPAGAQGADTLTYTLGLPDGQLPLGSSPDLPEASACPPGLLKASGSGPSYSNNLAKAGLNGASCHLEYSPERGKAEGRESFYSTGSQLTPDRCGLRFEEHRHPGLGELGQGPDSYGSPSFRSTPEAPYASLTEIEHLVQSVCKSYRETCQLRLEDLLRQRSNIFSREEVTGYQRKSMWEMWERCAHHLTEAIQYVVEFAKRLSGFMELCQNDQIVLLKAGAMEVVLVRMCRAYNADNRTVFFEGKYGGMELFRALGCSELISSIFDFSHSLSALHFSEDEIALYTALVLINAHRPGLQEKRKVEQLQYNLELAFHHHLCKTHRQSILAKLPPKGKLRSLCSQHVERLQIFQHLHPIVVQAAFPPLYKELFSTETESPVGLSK
# Experimental: Antagonistic (or inverse agonistic) effects of the test compounds on the RORγt-activated IL-17A Prom/LUCPorter™ HEK 293 cells were analyzed and IC50 of each compound was evaluated. […] Luciferase activity was analyzed using the luciferase reporter assay reagent (IMGENEX, LS100). The data were analyzed using Excel and Prism software. Percent activity was defined as 100×(1−(Well−Control A)/(Control B−Control A)), where Control A was the wells containing cells transfected with RORγt and Control B was the wells containing non-transfected cells. Both Controls A and B were treated with vehicle alone.
SMILES,pIC50 [1],pIC50 (RORγ-LBD (RORγt); read-out: RORγt Binding),pIC50 (RORγt; read-out: RORγt Cell Specific),pIC50 (RORγ-LBD (RORγt); RORγt Binding),pIC50 (RORγt; RORγt Cell Specific)
"COc1cc2c(cc1N1CCOCC1)CC(Cc1ccc(Cl)cc1F)C2=O (stereo not drawn) [compound 16, 2-(4-chloro-2-fluorobenzyl)-6-methoxy-5-morpholino-2,3-dihydro-1H-inden-1-one]",< 6.00,< 6.00,< 6.00,,
"COc1cc2c(cc1N1CCN(C)C(C)C1)CC(CC1CCN(Cc3ccccc3)CC1)C2=O (stereo not drawn) [compound 25, 2-((1-benzylpiperidin-4-yl)methyl)-5-(3,4-dimethylpiperazin-1-yl)-6-methoxy-2,3-dihydro-1H-inden-1-one]",,,< 5.00,,
"COc1cc2c(cc1N1CCOCC1)C/C(=C\c1cc(Br)cc(OC(F)(F)F)c1)C2=O [compound 30, (E)-2-(3-bromo-5-(trifluoromethoxy)benzylidene)-6-methoxy-5-morpholino-2,3-dihydro-1H-inden-1-one]",< 6.00,< 5.00,< 5.00,,
"COc1cc2c(cc1N1CCOCC1)CC(Cc1cc(Br)cc(OC(F)(F)F)c1)C2=O (stereo not drawn) [compound 32, 2-(3-bromo-5-(trifluoromethoxy)benzyl)-6-methoxy-5-morpholino-2,3-dihydro-1H-inden-1-one]",< 6.00,> 6.30,> 6.30,,
"COc1cc2c(cc1N1CCOCC1)CC(Cc1cccc(C(F)(F)F)c1)C2=O (stereo not drawn) [compound 37, 6-methoxy-5-morpholino-2-(3-(trifluoromethyl)benzyl)-2,3-dihydro-1H-inden-1-one]",> 6.30,,,> 6.30,> 6.30
"COc1cc2c(cc1N1CCOCC1)CC(Cc1c(F)ccc(NC3CCN(C)CC3)c1F)C2=O (stereo not drawn) [compound 44, 2-(2,6-difluoro-3-((1-methylpiperidin-4-yl)amino)benzyl)-6-methoxy-5-morpholino-2,3-dihydro-1H-inden-1-one]",< 5.00,,,,
COc1cc2c(cc1N1CCOCC1)CC(Cc1ccc(C(F)(F)F)nc1)C2=O (stereo not drawn) [compound 83],,< 6.00,< 6.00,,
COc1cc2c(cc1N1CCN(C)CC1)CC(Cc1cccc(C(F)(F)F)c1)C2=O (stereo not drawn) [compound 156],,< 5.00,> 6.30,,
COc1cc2c(cc1N1CCN(C)CC1)CC(Cc1ncccc1C(F)(F)F)C2=O (stereo not drawn) [compound 250],,< 6.00,,,
COc1cc2c(cc1N1CCOCC1)CC(Cc1cncc(C(O)(C(F)(F)F)C(F)(F)F)c1)C2=O (stereo not drawn) [compound 264],,> 6.30,,,

# Results, then the compound that gave them:
pIC50 [1],pIC50 (RORγ-LBD (RORγt); read-out: RORγt Binding),pIC50 (RORγt; read-out: RORγt Cell Specific),pIC50 (RORγ-LBD (RORγt); RORγt Binding),pIC50 (RORγt; RORγt Cell Specific),SMILES
< 6.00,< 6.00,< 5.00,,,"COc1cc2c(cc1N1CCN(C)C(C)C1)CC(Cc1ccc(Cl)cc1F)C2=O (stereo not drawn) [compound 20, 2-(4-chloro-2-fluorobenzyl)-5-(3,4-dimethylpiperazin-1-yl)-6-methoxy-2,3-dihydro-1H-inden-1-one]"
> 6.30,> 6.30,< 6.00,,,"COc1cc2c(cc1N1CCOCC1)CC(CC1CCN(Cc3ccccc3)CC1)C2=O (stereo not drawn) [compound 23, 2-((1-benzylpiperidin-4-yl)methyl)-6-methoxy-5-morpholino-2,3-dihydro-1H-inden-1-one]"
< 6.00,< 6.00,< 5.00,,,"COc1cc2c(cc1N1CCOCC1)CC(Cc1ccc(F)cc1F)C2=O (stereo not drawn) [compound 28, 2-(2,4-difluorobenzyl)-6-methoxy-5-morpholino-2,3-dihydro-1H-inden-1-one]"
< 6.00,< 6.00,,,,"COc1cc2c(cc1N1CCOCC1)CC(Cc1c(F)cccc1F)C2=O (stereo not drawn) [compound 42, 2-(2,6-difluorobenzyl)-6-methoxy-5-morpholino-2,3-dihydro-1H-inden-1-one]"
< 6.00,< 6.00,< 6.00,,,"COc1cc2c(cc1N1CCOCC1)CC(Cc1sc(N3CCOCC3)nc1Cl)C2=O (stereo not drawn) [compound 47, 2-((4-chloro-2-morpholinothiazol-5-yl)methyl)-6-methoxy-5-morpholino-2,3-dihydro-1H-inden-1-one]"
,< 6.00,> 6.30,,,COc1cc2c(cc1N1CCNCC1)CC(Cc1ncccc1C(F)(F)F)C2=O (stereo not drawn) [compound 249]
